According to patent US20130245355A1, “3-HETARYL-SUBSTITUTED PYRROLO[2,3 B]PYRIDINE DERIVATIVES AS PDK1 INHIBITORS” (MERCK PATENT GMBH, priority 2010, published 2013):

Experiments:
[1] = target: T1, PDK1 (Homo sapiens, UniProt O15530); experiment: Cellular testing of PDK1 kinase inhibitors in PC3 cells (Luminex, phospho-T308-PKB); format: cell-based; details: 30 min, serum-free
T1 construct: endogenous in cells; host or cells: PC3 cells
T1 sequence (O15530 1-556): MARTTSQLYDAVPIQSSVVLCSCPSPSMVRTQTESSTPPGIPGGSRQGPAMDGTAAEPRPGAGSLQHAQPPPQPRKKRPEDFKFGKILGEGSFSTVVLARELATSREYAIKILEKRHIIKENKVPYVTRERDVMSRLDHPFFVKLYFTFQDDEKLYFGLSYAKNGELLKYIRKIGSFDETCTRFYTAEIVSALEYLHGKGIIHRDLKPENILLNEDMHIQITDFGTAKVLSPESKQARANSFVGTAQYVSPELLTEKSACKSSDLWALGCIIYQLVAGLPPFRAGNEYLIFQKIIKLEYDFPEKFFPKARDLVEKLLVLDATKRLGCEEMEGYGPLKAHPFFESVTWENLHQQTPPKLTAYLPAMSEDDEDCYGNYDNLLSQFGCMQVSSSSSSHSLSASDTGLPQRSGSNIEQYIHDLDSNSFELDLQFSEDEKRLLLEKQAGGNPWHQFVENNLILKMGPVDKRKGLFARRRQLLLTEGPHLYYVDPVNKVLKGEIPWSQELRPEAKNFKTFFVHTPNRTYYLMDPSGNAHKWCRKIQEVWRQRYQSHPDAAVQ
Description: Method for the Cellular Testing of PDK1 Kinase Inhibitors in PC3 Cells.
The cellular assay for the determination of the PDK1 kinase activity is carried out as a Luminex assay in the 96-well format. PC3 cells are sown at 20,000 cells per well in 100 μl of medium (45% of […]/45% of Ham's F12/10% of FCS) and incubated on the following day for 30 min with a serial dilution of the test substance (7 concentrations) under serum-free conditions. The cells are subsequently lysed using 90 μl of lysis buffer (20 mM tris/HCl pH 8.0, 150 mM NaCl, 1% of NP40, 10% of glycerol, 1% of phosphatase inhibitor I, 1% of phosphatase inhibitor II, 0.1% of protease inhibitor cocktail III, 0.01% of benzonase) per well, and the lysates are separated off from insoluble cell constituents by means of centrifugation through a 96-well filter plate (0.65 μm). The lysates are incubated overnight at 4° C. with shaking with Luminex beads to which an anti-total PKB antibody is coupled. The detection is carried out on the following day by addition of a phospho-T308-PKB antibody and a species-specific […] secondary antibody. The detection of phospho T308-PKB is carried out by measurement in a Luminex100 instrument by determination of 100 events per cavity in a measurement time of 60 sec. As pharmacological blank, the signals obtained from cells which have been treated with 10 μM staurosporin are subtracted from all other batches. The control value used for maximum phosphorylation of PKB on T308 are the signals from cells which have only been treated with the solvent (0.3% of DMSO). The values of the batches treated with test substance are calculated therefrom as percentage of control, and IC50 values are determined by means of RS 1.

[2] = target: T2, PDK1 (Homo sapiens, UniProt O15530); experiment: Test for the inhibition of PDK1 (flashplate, 33P-ATP); details: His6-PDK1 (1-50) 3.4 nM, 4 μM ATP, 30° C., 60 min; read-out: IC50 [PDK1] biochemical
T2 construct: His6 (N)
T2 sequence (O15530 51-556 limits assumed): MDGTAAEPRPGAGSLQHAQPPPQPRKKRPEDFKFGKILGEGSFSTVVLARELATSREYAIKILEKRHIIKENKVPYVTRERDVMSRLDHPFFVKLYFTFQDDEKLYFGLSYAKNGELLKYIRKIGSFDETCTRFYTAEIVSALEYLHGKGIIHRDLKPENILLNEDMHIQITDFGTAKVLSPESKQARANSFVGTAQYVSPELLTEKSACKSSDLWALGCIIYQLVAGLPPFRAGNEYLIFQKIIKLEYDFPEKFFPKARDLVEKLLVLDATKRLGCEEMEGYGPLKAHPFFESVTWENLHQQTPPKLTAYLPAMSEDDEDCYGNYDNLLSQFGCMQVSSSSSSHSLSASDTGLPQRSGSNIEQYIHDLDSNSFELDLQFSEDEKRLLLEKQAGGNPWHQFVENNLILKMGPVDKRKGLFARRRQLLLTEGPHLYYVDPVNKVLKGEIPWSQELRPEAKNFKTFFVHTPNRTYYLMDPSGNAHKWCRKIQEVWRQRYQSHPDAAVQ
Description: The experimental batches are carried out in a flashplate system with 384 wells/microtitration plate.
In each case, the PDK1 sample His6-PDK1 (1-50) (3.4 nM), the PDK1 substrate biotin-bA-bA-[…] (400 nM), 4 μM ATP (with 0.2μ Ci of ^33P-ATP/well) and the test substance in 50 μl of conventional experimental solution per well are incubated at 30° C. for 60 min. The test substances are employed in corresponding concentrations (if desired in a dilution series). The control is carried out without test substance. The reaction is stopped using standard methods and washed. The activity of the kinase is measured via the incorporated radioactivity in top count. In order to determine the non-specific kinase reaction (blank value), the experimental batches are carried out in the presence of 100 nM staurosporin.
The radioactivity (decompositions per minute) of the blank value (no use of test substance in the presence of staurosporin) is subtracted from all other radioactivity values. The controls (kinase activity without test substance) are set equal to 100 percent and all other radioactivity values (after subtracting the blank value) are expressed set in relation thereto (for example in % of the control).
IC50 values (50% inhibition) are determined with the aid of statistics programmes, such as, for example, RS1.

| IC50 [1] [µM] | IC50 [2] [µM] | SMILES |
| --- | --- | --- |
| 0.0005 to 1 | 0.0005 to 1 | Cn1cc(-c2cnc3[nH]cc(-c4nnc([C@@H](O)c5ccccc5Cl)o4)c3c2)cn1 (single isomer, unassigned) [A130] |
|  | 0.0005 to 1 | Cn1cc(-c2cnc3[nH]cc(-c4nnc([C@H](O)c5ccccc5Cl)o4)c3c2)cn1 (single isomer, unassigned) [A131] |
|  | 0.0005 to 1 | Cn1cc(-c2cnc3[nH]cc(-c4cc(C(C)(O)c5ccnnc5)on4)c3c2)cn1 (stereo not drawn) [A98, 1-{3-[5-(1-methyl-1H-pyrazol-4-yl)-1H-pyrrolo[2,3-b]pyridin-3-yl]isoxazol-5-yl}-1-pyridazin-4-ylethanol] |
|  | 0.0005 to 1 | Cn1cc(-c2cnc3[nH]cc(-c4cc(C(O)(c5ccccc5)C5CCOCC5)[nH]n4)c3c2)cn1 (stereo not drawn) [A101, {5-[5-(1-methyl-1H-pyrazol-4-yl)-1H-pyrrolo[2,3-b]pyridin-3-yl]-2H-pyrazol-3-yl}phenyl(tetrahydropyran-4-yl)methanol] |
|  | 0.0005 to 1 | Cn1cc(-c2cnc3[nH]cc(-c4cc(C(O)(c5ccccc5)C5CCOCC5)no4)c3c2)cn1 (stereo not drawn) [A102] |
|  | 0.0005 to 1 | Cn1cc(-c2cnc3[nH]cc(-c4cc(C(O)(c5ccccc5)C5CCOCC5)on4)c3c2)cn1 (stereo not drawn) [A103] |
|  | 0.0005 to 1 | CCN(CC)Cc1cc(-c2c[nH]c3ncc(-c4cnn(C)c4)cc23)no1 [A104] |
|  | 1 to 10 | Cn1cc(-c2cnc3[nH]cc(-c4cc(C(O)c5ccccc5)nn4CCO)c3c2)cn1 (stereo not drawn) [A106] |
|  | 0.0005 to 1 | Cn1cc(-c2cnc3[nH]cc(-c4nnc([C@H](N)c5ccccc5)o4)c3c2)cn1 [A108, C—((R)—C-{5-[5-(1-methyl-1H-pyrazol-4-yl)-1H-pyrrolo[2,3-b]pyridin-3-yl]-1,3,4-oxadiazol-2-yl}-C-phenyl)methylamine] |
|  | 0.0005 to 1 | Cn1cc(-c2cnc3[nH]cc(-c4nnc([C@@H](N)c5ccccc5)o4)c3c2)cn1 [A109, C—((S)—C-{5-[5-(1-methyl-1H-pyrazol-4-yl)-1H-pyrrolo[2,3-b]-pyridin-3-yl]-1,3,4-oxadiazol-2-yl}-C-phenyl)methylamine] |
|  | 0.0005 to 1 | Cn1cc(-c2cnc3[nH]cc(-c4nnc(C5(c6ccnc(O)c6)CC5)o4)c3c2)cn1 [A111] |
|  | 1 to 10 | CCC(N)(c1ccccc1)c1nnc(-c2c[nH]c3ncc(-c4cnn(C)c4)cc23)o1 (stereo not drawn) [A114] |
|  | 1 to 10 | Cn1cc(-c2cnc3[nH]cc(-c4nnc(C(N)c5cccnc5)o4)c3c2)cn1 (stereo not drawn) [A115] |
| 1 to 10 |  | Cn1cc(-c2cnc3[nH]cc(-c4nc(C5(c6ccccc6Cl)CC5)no4)c3c2)cn1 [A119] |
|  | 1 to 10 | Cn1cc(-c2cnc3[nH]cc(-c4nnc(C(C)(C)c5ccnnc5)o4)c3c2)cn1 [A121, 5-(1-methyl-1H-pyrazol-4-yl)-3-[5-(1-methyl-1-pyridazin-4-ylethyl)-1,3,4-oxadiazol-2-yl]-1H-pyrrolo[2,3-b]pyridine] |
| 1 to 10 |  | Cn1cc(-c2cnc3[nH]cc(-c4nnc(C(O)c5ccc(C(=O)NC6CCCCC6)cc5Cl)o4)c3c2)cn1 (stereo not drawn) [A129, 3-chloro-N-cyclohexyl-4-(hydroxy-{5-[5-(1-methyl-1H-pyrazol-4-yl)-1H-pyrrolo[2,3-b]pyridin-3-yl]-1,3,4-oxadiazol-2-yl}methyl)benzamide] |

Further lines, the molecule ahead of its results:

| SMILES | IC50 [1] [µM] | IC50 [2] [µM] |
| --- | --- | --- |
| Cn1cc(-c2cnc3[nH]cc(-c4nnc(C(O)c5ccccc5Cl)o4)c3c2)cn1 (racemic) [A58] | 0.0005 to 1 | 0.0005 to 1 |
| Cn1cc(-c2cnc3[nH]cc(-c4cc([C@@](C)(O)c5ccccc5)on4)c3c2)cn1 (single isomer, unassigned) [A34] | 0.0005 to 1 | 0.0005 to 1 |
| Cn1cc(-c2cnc3[nH]cc(-c4cc([C@](C)(O)c5ccccc5)on4)c3c2)cn1 (single isomer, unassigned) [A35] | 1 to 10 | 0.0005 to 1 |
| Cn1cc(-c2cnc3[nH]cc(-c4cc([C@](C)(O)c5ccccc5F)on4)c3c2)cn1 (single isomer, unassigned) [A55] | 0.0005 to 1 | 0.0005 to 1 |
| Cn1cc(-c2cnc3[nH]cc(-c4cc([C@](C)(O)c5ccccc5F)on4)c3c2)cn1 (single isomer, unassigned) [A56] |  | 0.0005 to 1 |
| Cn1cc(-c2cnc3[nH]cc(-c4cc([C@](C)(O)c5cccc(F)c5)on4)c3c2)cn1 (single isomer, unassigned) [A62] | 1 to 10 | 0.0005 to 1 |
| Cn1cc(-c2cnc3[nH]cc(-c4cc([C@](C)(O)c5cccc(F)c5)on4)c3c2)cn1 (single isomer, unassigned) [A63] | 1 to 10 | 0.0005 to 1 |
| CC[C@](O)(c1cc(-c2c[nH]c3ncc(-c4cnn(C)c4)cc23)no1)c1ccccc1F (single isomer, unassigned) [A92] |  | 0.0005 to 1 |
| CC[C@@](O)(c1cc(-c2c[nH]c3ncc(-c4cnn(C)c4)cc23)no1)c1ccccc1F (single isomer, unassigned) [A93] |  | 0.0005 to 1 |
| Cn1cc(-c2cnc3[nH]cc(-c4cc(C(C)(O)c5ccccc5)on4)c3c2)cn1 (stereo not drawn) [A1, 1-{3-[5-(1-methyl-1H-pyrazol-4-yl)-1H-pyrrolo[2,3-b]pyridin-3-yl]isoxazol-5-yl}-1-phenylethanol] | 0.0005 to 1 | 0.0005 to 1 |
| Cn1cc(-c2cnc3[nH]cc(-c4csc(Cc5ccccc5)n4)c3c2)cn1 [A2, 3-(2-benzyl-thiazol-4-yl)-5-(1-methyl-1H-pyrazol-4-yl)-1H-pyrrolo[2,3-b]pyridine] | 1 to 10 |  |
| Cc1sc(Cc2ccccc2)nc1-c1c[nH]c2ncc(-c3cnn(C)c3)cc12 [A3] | 1 to 10 |  |
| Cn1cc(-c2cnc3[nH]cc(-c4csc(Cc5cccc(F)c5)n4)c3c2)cn1 [A7] | 1 to 10 |  |
| Cn1cc(-c2cnc3[nH]cc(-c4noc(Cc5cccc(F)c5)n4)c3c2)cn1 [A8, 3-[5-(3-fluorobenzyl)-1,2,4-oxadiazol-3-yl]-5-(1-methyl-1H-pyrazol-4-yl)-1H-pyrrolo[2,3-b]pyridine] |  | 1 to 10 |
| Cn1cc(-c2cnc3[nH]cc(-c4noc(Cc5ccccc5F)n4)c3c2)cn1 [A13] |  | 1 to 10 |
| Cn1cc(-c2cnc3[nH]cc(-c4noc(Cc5ccccc5)n4)c3c2)cn1 [A26] |  | 1 to 10 |
| Cn1cc(-c2cnc3[nH]cc(-c4noc(C(=O)c5ccccc5)n4)c3c2)cn1 [A27] | 1 to 10 |  |
| Cn1cc(-c2cnc3[nH]cc(-c4n[nH]c(C(O)c5ccccc5)n4)c3c2)cn1 (stereo not drawn) [A30] |  | 0.0005 to 1 |
| COC(C)(c1ccccc1)c1cc(-c2c[nH]c3ncc(-c4cnn(C)c4)cc23)nn1C (stereo not drawn) [A73] |  | 1 to 10 |
| Cn1cc(-c2cnc3[nH]cc(-c4cc(C(C)(O)c5ccccc5)n(C)n4)c3c2)cn1 (stereo not drawn) [A76] |  | 1 to 10 |
| CCOC(c1ccccc1)c1cc(-c2c[nH]c3ncc(-c4cnn(C)c4)cc23)n[nH]1 (stereo not drawn) [A90] |  | 0.0005 to 1 |
